Series [1] deals with D(3) dopamine receptor (Homo sapiens, UniProt P35462). Nature of the series: Displacement of [3H]N-methylspiperone from human dopamine D3 receptor expressed in HEK293 cell membranes after 1 hr by scintillation counting method.
The target in series [2] is T1, D(4) dopamine receptor (Homo sapiens, UniProt P21917).
T1 sequence (P21917 whole entry): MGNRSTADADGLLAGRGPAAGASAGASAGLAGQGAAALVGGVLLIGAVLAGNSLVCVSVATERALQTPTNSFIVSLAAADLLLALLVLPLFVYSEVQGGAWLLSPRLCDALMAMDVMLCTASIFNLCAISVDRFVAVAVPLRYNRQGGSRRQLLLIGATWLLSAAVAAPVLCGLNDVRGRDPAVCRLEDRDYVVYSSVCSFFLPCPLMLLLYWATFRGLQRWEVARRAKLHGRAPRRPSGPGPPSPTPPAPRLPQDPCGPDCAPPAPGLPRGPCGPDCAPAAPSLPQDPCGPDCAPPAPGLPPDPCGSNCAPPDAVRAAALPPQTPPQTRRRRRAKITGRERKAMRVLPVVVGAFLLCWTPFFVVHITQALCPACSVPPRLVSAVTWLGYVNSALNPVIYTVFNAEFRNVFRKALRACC
Nature of the series: Displacement of [3H]N-methylspiperone from human dopamine D4 receptor expressed in HEK293 cell membranes after 1 hr by scintillation counting method. Background: Displacement assays read how much labelled ligand stays bound in the presence of the test substance.

Series [3] has as its target T2, Muscarinic acetylcholine receptor M1 (Homo sapiens, UniProt P11229).
T2 sequence (P11229 whole entry): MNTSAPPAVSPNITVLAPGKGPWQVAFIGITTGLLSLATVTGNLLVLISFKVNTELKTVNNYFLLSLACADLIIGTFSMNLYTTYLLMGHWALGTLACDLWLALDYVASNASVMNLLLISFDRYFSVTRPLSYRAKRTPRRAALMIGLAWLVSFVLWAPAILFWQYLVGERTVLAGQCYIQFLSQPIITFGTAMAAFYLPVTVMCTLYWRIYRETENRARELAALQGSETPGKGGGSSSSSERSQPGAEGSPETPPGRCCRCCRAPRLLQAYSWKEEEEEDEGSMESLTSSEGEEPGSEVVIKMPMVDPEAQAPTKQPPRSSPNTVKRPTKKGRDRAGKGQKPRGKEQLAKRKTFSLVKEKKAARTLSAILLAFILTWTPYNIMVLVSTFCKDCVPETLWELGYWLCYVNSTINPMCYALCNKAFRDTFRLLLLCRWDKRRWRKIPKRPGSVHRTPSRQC
Briefly: Displacement of [3H]NMS from human muscarinic M1 receptor expressed in CHO cell membranes after 2 hrs by liquid scintillation counting method.

The target of series [4] is T3, Muscarinic acetylcholine receptor M2 (Homo sapiens, UniProt P08172).
T3 sequence (P08172 whole entry): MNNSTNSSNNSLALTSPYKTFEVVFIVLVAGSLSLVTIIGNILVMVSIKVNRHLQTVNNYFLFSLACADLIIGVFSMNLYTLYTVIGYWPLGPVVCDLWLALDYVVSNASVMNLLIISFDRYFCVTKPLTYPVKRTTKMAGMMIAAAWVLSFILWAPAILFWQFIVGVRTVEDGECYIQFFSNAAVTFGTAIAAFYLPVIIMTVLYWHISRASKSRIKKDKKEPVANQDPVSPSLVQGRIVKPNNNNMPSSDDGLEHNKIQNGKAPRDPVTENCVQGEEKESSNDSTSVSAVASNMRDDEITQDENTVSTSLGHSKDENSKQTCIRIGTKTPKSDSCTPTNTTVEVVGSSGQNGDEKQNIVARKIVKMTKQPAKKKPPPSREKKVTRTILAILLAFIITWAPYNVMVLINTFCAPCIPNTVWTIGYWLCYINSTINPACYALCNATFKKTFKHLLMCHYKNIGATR
Briefly: Displacement of [3H]NMS from human muscarinic M2 receptor expressed in CHO cell membranes after 2 hrs by liquid scintillation counting method.

For series [5], the target named is Muscarinic acetylcholine receptor M3 (Homo sapiens, UniProt P20309). Nature of the series: Displacement of [3H]NMS from human muscarinic M3 receptor expressed in CHO cell membranes after 2 hrs by liquid scintillation counting method.
Series [6] addresses T4, Alpha-1D adrenergic receptor (Homo sapiens, UniProt P25100).
T4 sequence (P25100 whole entry): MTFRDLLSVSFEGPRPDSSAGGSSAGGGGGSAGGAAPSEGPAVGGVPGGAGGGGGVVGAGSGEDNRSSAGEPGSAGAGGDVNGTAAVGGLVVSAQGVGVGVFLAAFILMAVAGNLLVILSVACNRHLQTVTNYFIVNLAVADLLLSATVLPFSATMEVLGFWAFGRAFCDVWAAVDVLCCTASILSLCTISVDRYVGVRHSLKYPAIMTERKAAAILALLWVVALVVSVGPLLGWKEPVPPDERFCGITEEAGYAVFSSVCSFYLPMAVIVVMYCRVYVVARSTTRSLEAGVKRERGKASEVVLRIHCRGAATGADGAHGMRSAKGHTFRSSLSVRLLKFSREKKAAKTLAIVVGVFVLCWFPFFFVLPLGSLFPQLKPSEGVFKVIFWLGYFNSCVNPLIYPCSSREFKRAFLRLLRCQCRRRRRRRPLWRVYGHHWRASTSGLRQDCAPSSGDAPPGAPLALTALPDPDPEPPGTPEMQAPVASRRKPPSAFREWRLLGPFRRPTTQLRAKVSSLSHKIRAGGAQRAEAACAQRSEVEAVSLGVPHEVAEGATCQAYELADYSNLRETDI
Briefly: Displacement of [3H]prazosin from human recombinant alpha-1D adrenergic receptor expressed in CHO cell membranes after 30 mins by liquid scintillation counting method.

For series [7], the target named is Beta-2 adrenergic receptor (Homo sapiens, UniProt P07550). Nature of the series: Displacement of [3H]CGP12177 from human recombinant beta2 adrenergic receptor expressed in HEK293 cell membranes after 90 mins by beta counting method.
For series [8], the target named is Sigma non-opioid intracellular receptor 1 (Cavia porcellus, UniProt Q60492). Briefly: Displacement of [3H](+)-pentazocine from sigma1 receptor in Hartley guinea pig brain cortex after 120 mins by scintillation counting method.
Series [9] concerns the target Sodium-dependent serotonin transporter (Rattus norvegicus, UniProt P31652). Nature of the series: Displacement of [3H]-citalopram from SERT in Sprague-Dawley rat midbrain after 60 mins by scintillation counting method.
A short description of series [10]: Kinetic solubility of the compound at pH 7.4 after 24 hrs by UPLC/UV/TOF-MS method. The series is classed as physicochemical. To be noted: buffer, read-out: Kinetic_solubility.
Series [11] is described as follows: Fraction unbound in mouse brain at 5 uM by equilibrium dialysis method. Format: ADME, tissue-based. (In equilibrium dialysis free small molecules cross a membrane that holds back macromolecules.)
Series [12] can be described thus: Half life in mouse liver microsomes at 0.5 uM preincubated for 30 mins followed by NADPH addition measured over 30 mins by HPLC-MS/MS method. The series is classed as ADME, microsome.
In series [13] the test system is MDR1. Nature of the series: Apparent passive permeability across apical to basolateral side in MDCK2 cells expressing MDR1 at 3 uM after 60 mins by mass spectroscopy. Format: ADME, cell-based, Canis lupus familiaris, MDCK-II. To be noted: dog, MDCK-MDR1.
Series [14] concerns MDR1. Briefly: Apparent passive permeability across basolateral to apical side in MDCK2 cells expressing MDR1 at 3 uM after 60 mins by mass spectroscopy. Conditions: dog, MDCK-MDR1. Format: ADME, cell-based, Canis lupus familiaris, MDCK-II.
Series [15] has as its target T1, D(4) dopamine receptor. Nature of the series: Agonist activity at human SP/Myc epitope-tagged dopamine D4 receptor expressed in HEK293T cells assessed as RLuc8-fused Galphai1 activation after 2 mins by BRET assay. The series is classed as cell-based, HEK-293T. Background: Bioluminescence resonance energy transfer reports proximity on the nanometre scale.
Series [16] deals with Brain. Nature of the series: fAUClast in CD1 mouse brain at 3 mg/kg, sc by UPLC-MS analysis. Format: ADME, organism-based. Conditions: in vivo.

The structures appear in SMILES notation. Converted amounts (≈) assume the structure as drawn.

Muscarinic acetylcholine receptor M3, sequence (P20309 whole entry): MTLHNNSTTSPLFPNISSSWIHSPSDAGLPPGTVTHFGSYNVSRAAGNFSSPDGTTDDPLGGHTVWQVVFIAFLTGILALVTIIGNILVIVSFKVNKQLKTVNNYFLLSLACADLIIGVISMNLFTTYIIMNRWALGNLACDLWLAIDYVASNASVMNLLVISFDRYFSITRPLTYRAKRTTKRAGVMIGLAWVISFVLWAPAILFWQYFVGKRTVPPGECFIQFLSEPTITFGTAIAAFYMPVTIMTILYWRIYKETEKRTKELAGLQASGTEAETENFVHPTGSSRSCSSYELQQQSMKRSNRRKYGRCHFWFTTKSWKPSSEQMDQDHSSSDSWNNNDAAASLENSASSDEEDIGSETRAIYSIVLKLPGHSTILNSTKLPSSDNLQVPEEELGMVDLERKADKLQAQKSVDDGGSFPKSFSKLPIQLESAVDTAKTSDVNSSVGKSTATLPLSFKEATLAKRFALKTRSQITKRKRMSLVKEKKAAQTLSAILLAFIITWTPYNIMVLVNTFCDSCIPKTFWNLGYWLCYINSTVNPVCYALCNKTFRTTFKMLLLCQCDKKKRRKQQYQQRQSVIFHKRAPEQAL
D(3) dopamine receptor, sequence (P35462 whole entry): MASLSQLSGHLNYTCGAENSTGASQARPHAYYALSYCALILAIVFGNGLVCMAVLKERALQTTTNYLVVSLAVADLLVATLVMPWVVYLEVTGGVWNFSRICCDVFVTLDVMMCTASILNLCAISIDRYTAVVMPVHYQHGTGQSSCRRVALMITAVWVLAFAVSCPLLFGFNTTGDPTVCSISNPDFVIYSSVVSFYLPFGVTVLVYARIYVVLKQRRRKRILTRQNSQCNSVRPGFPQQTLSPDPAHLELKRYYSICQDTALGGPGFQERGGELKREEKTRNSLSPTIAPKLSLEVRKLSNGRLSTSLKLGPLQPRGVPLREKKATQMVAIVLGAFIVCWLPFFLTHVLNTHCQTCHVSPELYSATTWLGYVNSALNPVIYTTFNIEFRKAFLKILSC
Sodium-dependent serotonin transporter, sequence (P31652 whole entry): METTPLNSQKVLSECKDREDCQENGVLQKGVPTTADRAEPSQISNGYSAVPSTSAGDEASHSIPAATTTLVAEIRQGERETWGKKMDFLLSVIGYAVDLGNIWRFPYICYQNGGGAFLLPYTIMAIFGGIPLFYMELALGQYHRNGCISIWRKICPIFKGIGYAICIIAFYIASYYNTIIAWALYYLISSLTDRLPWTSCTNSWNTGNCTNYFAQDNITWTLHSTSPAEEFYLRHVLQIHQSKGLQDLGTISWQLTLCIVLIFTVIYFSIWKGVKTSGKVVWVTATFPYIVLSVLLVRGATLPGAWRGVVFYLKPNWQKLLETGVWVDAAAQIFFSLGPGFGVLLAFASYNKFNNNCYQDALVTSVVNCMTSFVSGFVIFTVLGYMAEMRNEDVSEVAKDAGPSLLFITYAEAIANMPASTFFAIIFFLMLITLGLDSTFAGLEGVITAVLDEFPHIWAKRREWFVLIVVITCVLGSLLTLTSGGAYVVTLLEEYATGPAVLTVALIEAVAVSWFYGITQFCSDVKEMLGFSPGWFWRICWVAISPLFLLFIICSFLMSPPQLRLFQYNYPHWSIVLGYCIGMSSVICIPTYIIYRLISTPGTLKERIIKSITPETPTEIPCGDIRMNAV
Beta-2 adrenergic receptor, sequence (P07550 whole entry): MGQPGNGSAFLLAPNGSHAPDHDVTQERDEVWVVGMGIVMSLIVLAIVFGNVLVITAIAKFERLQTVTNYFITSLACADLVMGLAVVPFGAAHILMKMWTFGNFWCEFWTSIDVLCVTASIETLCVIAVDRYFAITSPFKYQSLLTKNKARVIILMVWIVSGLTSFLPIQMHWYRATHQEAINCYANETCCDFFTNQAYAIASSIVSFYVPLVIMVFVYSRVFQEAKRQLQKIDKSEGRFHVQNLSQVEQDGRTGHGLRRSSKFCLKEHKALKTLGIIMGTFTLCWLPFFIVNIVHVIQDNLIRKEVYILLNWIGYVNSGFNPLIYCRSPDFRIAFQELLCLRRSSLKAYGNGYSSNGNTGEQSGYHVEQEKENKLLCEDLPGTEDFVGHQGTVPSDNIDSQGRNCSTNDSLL
Sigma non-opioid intracellular receptor 1, sequence (Q60492 whole entry): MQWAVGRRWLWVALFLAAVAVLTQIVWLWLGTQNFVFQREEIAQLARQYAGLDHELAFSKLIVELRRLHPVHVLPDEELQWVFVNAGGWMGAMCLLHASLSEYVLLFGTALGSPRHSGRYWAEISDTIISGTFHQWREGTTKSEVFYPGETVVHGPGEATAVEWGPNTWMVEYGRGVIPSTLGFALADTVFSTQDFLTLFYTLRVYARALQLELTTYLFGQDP

With `O=C1CCc2ccccc2N1CCCN1CCC(Cc2ccccc2)CC1`, the Ki (usually a dissociation constant, usually derived from enzyme kinetics or from competition with a known ligand) is 1820 nM in series [1]; 1.26 nM in [2]; 363 nM in series [3]; 794 nM in series [4]; 3020 nM in series [5]; 302 nM in [6]. Besides, the Ki is 9550 nM in series [7], 10 nM in series [8] and 46.8 nM in series [9]. Further, the solubility kinetic at 24 h in [10] came out at 477 µM (≈ 173 µg/mL). For the same compound, the fraction unbound (as a rule, the share of the substance not bound to proteins or other matrix) at 5 µM in series [11] was found to be 0.051. In series [12], the half-life – broadly, the time in which the quantity being followed falls by half – at 0.5 µM amounted to 3.5 min. Moreover, the apical-to-basolateral permeability (Papp A→B) (usually how fast a substance crosses the layer from the apical side) at 1 h, 3 µM in series [13] came to 10.9 ×10⁻⁶ cm/s. Moreover, the Papp B→A (in general, how fast a substance crosses the layer from the basolateral side) at 1 h, 3 µM in series [14] stood at 20.9 ×10⁻⁶ cm/s.

In the case of `O=C1CCc2ccccc2N1CCCN1CCN(c2ccccc2)CC1`, the Ki in series [1] was 1320 nM; in series [2] it was 2.88 nM; in series [3], 4270 nM; in series [4], 16600 nM; in series [5] it was 17800 nM; in [6] it was 91.2 nM. Besides, the figures for the Ki in series [7], in series [8] and in series [9] were 35500 nM, 269 nM and 5010 nM, respectively. Further, the concentration giving a half-maximal response (EC50) (commonly the midpoint of the concentration-response curve) in series [15] is 0.158 nM. Besides, the solubility kinetic at 24 h in series [10] is 520 µM (≈ 182 µg/mL). Moreover, the fraction unbound at 5 µM in series [11] came out at 0.086. This compound registered a half-life at 0.5 µM in series [12] of 8.71 min. The Papp A→B at 1 h, 3 µM in [13] turned out to be 16.2 ×10⁻⁶ cm/s. For the same compound, the apparent permeability from basolateral to apical (Papp B→A) at 1 h, 3 µM in series [14] came to 19.7 ×10⁻⁶ cm/s. This compound also returned a fAUClast in series [16] of 204 ng·h/mL.

Values taken from ChEMBL document CHEMBL4043296 (J Med Chem, 2018).
